Measured values as given in paper PMC6669322, “Small Molecule Binding to Alzheimer Risk Factor CD33 Promotes Aβ Phagocytosis” (iScience, 2019).

Molecular target: CD33 R119A (Homo sapiens, UniProt P20138, R119A)
Test: surface plasmon resonance (SPR), CD33 R119A mutant
Format: binding
Parameters: DNA encoding D18 to H143 of human CD33; octa-histidine tag with TEV protease cleavage site (N); made in house; host or cells: E. coli BL21* (the general protein production text; the R119A protein is not described on its own)
Conditions: P22 as analyte, captured CD33 R119A
Description: We next performed surface plasmon resonance (SPR) measurements on P22 binding to CD33 wild-type, and selected mutants, to obtain detailed kinetic data (see Transparent Methods). The CD33 V-set domain has a free cysteine residue (C36), which caused anomalous results in some of our SPR experiments due to disulfide-linked oligomers forming in solution.
P22 (β-D-Glucopyranoside, 2-aminoethyl O-[N-[2-(4-cyclohexyl-1H-1,2,3-triazol-1-yl)acetyl]-9-deoxy-9-[(4-hydroxy-3,5-dimethylbenzoyl)amino]-α-neuraminosyl] (2→6)-O-β-D-galactopyranosyl-(1→4)-; CAS registry number [1809735-27-0]) was synthesized as described by Paulson and co-workers (Rillahan et al., 2014). Biotinylated P22 (Figure S1C) was prepared by treatment of a solution of P22 (12 mg, 0.012 mmol) in dimethylformamide (1 mL), with DIPEA (8.6 µL, […]) followed by addition of (+)- biotin N-hydroxysuccinimide ester (4.2 mg, 0.012 mmol), the resulting reaction mixture was then stirred for 2 h at RT. After which the reaction mixture was concentrated in vacuo and purified by reverse phase, performed via preparative HPLC (Stationary phase: RP XBridge Prep C18 OBD- 5µm,19x150mm, Mobile phase: 0.25% NH4HCO3 solution in water, CH3CN) to afford Biotin-P22 (9 mg, yield 60.9%). […]

Chain of CD33 R119A (P20138 18-143 R119A): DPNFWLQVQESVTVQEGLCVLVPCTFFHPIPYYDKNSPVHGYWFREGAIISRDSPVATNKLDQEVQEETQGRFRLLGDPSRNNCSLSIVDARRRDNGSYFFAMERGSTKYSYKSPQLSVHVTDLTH

binding observed by SPR: no binding
Compound: Cc1cc(C(=O)NC[C@@H](O)[C@@H](O)[C@@H]2O[C@@](OC[C@H]3O[C@@H](O[C@H]4[C@H](O)[C@@H](O)[C@H](OCCN)O[C@@H]4CO)[C@H](O)[C@@H](O)[C@H]3O)(C(=O)O)C[C@H](O)[C@H]2NC(=O)Cn2cc(C3CCCCC3)nn2)cc(C)c1O [P22, β-D-Glucopyranoside, 2-aminoethyl O-[N-[2-(4-cyclohexyl-1H-1,2,3-triazol-1-yl)acetyl]-9-deoxy-9-[(4-hydroxy-3,5-dimethylbenzoyl)amino]-α-neuraminosyl] (2→6)-O-β-D-galactopyranosyl-(1→4)-]
